Entries after “also recorded” stand apart in the source; their conditions may differ.

Assay [1] relates to polyoma virus transformed BHK21/c13 cells, line S100T1. Briefly: Collocation inhibition test: clonal growth in sparsely and densely seeded areas of a cell density gradient of S100T1 cells in soft agar (Exp 13, 17, 19-26).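 On Clonal growth, L low density area of cell gradient, High: grades rise with clonal growth and minus or plus-minus means none.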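 On Clonal growth, L low density area of cell gradient, Low: grades rise with clonal growth and minus or plus-minus means none.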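 On all read-outs here: soft agar cultures in 24-well plates with a cell density gradient in the top layer, compounds applied from DMSO stocks, clonal growth scored in sparse versus dense areas.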 The settings on record: for Clonal growth, H: high density area of cell gradient, High / Clonal growth, L: low density area of cell gradient, High / Clonal growth, H: high density area of cell gradient, Low / Clonal growth, L: low density area of cell gradient, Low / Clonal growth, H: high density area of cell gradient, Medium / Clonal growth, L: low density area of cell gradient, Medium: 4-OH-OPB analogues, S100T1 in soft agar; for Clonal growth, H: high density area of cell gradient, High / Clonal growth, L: low density area of cell gradient, High / Clonal growth, L low density area of cell gradient, High: high concentration; for Clonal growth, H: high density area of cell gradient, Low / Clonal growth, L: low density area of cell gradient, Low / Clonal growth, L low density area of cell gradient, Low: low concentration; for Clonal growth, H: high density area of cell gradient, Medium / Clonal growth, L: low density area of cell gradient, Medium: medium concentration; for Inhibition of clonal growth of sparsely seeded cells: 117000 S100T1 cells/well; for Clonal growth, L low density area of cell gradient, High / Clonal growth, L low density area of cell gradient, Low / Effect on cell cloning in soft agar: preliminary results; for Clonal growth, L low density area of cell gradient, High / Clonal growth, L low density area of cell gradient, Low: Exp 13-18, 21-26; for Effect on cell cloning in soft agar: in words.

Assay [2] has as its system polyoma virus transformed BHK21/c13 cells, clone S100T1. Briefly: Clonal test: clonal growth of S100T1 cells in soft agar (Exp 2, 4, 6, 15, 16). The assay is classed as cell-based, hamster. The settings on record: for Clonal growth: Exp 15, plate read the 5th day; for Anti-clonal effect, summary of Exp 15: S100T1 in soft agar. Here is the method: The clonal test comprises: • 1. seeding cells in soft agar optionally containing growth factor(s); • 2. handling or incubation of special gels (e.g. ultra low gelling temperature agarose), including the production of cell density gradients. • 3. incubating in suitable temperature and atmosphere and; • 4. regular monitoring of the cells and development of clones.
The clonal test can be directed in fluid medium or in soft agar medium. Usually only transformed cells will form clones in soft agar.
After seeding and mixing, the tubes were placed in the refrigerator for about 1 hour to consolidate the ultra low melting point agarose.
120000 S100T1 cells of a polyoma virus transformed BHK21/c13 cell line, were seeded in 1 ml soft agar medium in Falcon 50 ml centrifuge tubes. […] On the top of the agar layer 0.5 ml fluid medium was added.
Agar cultures were prepared in wells of 24 well Falcon tissue culture plate. […] Insulin (Actrapid, Novo) was added in a concentration of 0.1 i.u./ml to BHK21/c13 cell cultures only.
The cells were all single cells. Each well received 32000 cells (Table 4). Plate: 24 wells Falcon tissue culture plate received a bottom layer composed as in Table 3:
The cells were all single cells.
The wells contained two layers, each of 0.3 ml agar.
The agarose was added to double distilled water and solved by heating in micro oven.

Where [3] appears, read: Experiment 22, H: area with high cell density, High concentration.
Setting [4] is: Experiment 22, H: area with high cell density, Low concentration.
Where [5] appears, read: Experiment 22, H: area with high cell density, Medium concentration.
The mark [6] stands for this setting: Experiment 22, L: area with low cell density, High concentration.
[7] abbreviates: Experiment 22, L: area with low cell density, Low concentration.
The mark [8] stands for this setting: Summary Table 3 of analogue tests (experiments 22-25), H (high cell density), High concentration.
Setting [9] is: Summary Table 3 of analogue tests (experiments 22-25), H (high cell density), Low concentration.
Setting [10] is: Summary Table 3 of analogue tests (experiments 22-25), H (high cell density), Medium concentration.
Setting [11] is: Summary Table 3 of analogue tests (experiments 22-25), L (low cell density), High concentration.
The mark [12] stands for this setting: Summary Table 3 of analogue tests (experiments 22-25), L (low cell density), Low concentration.
Setting [13] is: Summary Table 3 of analogue tests (experiments 22-25), L (low cell density), Medium concentration.
The mark [14] stands for this setting: Exp 15, 5th day, Low conc., μM in wells: No 1 (4-OH—OPB) 2, 2 (Colchicine) 0.01, 3 (Diphenylhydantoin) 10, 4 (Podophyllotoxin) 0.03, 5 (Piroxicam) 5, 6 (Diclofenak) 10, 7 (Ibuprofen) 100, 8 (Naproxen) 50, 9 (Acetylsalicylic acid) 100, ” = as line above.
Setting [15] is: High conc., μM in wells: No 1 (4-OH—OPB) 20, 2 (Colchicine) 0.1, 3 (Diphenylhydantoin) 100, 4 (Podophyllotoxin) 0.3, 5 (Piroxicam) 50, 6 (Diclofenak) 100, 7 (Ibuprofen) 1000, 8 (Naproxen) 500, 9 (Acetylsalicylic acid) 1000.
Setting [16] is: Exp 15, 32000 S100T1 cells/well.

Consider `CCCCC1(O)C(=O)N(c2ccccc2)N(c2ccc(OC)cc2)C1=O` (centres unmarked) [#7, 4-(1-butyl)-4-hydroxy-1-(4-methoxyphenyl)-2-phenyl-3,5-pyrazolidinedione], for which the “Clonal growth, H: high density area of cell gradient, High” value in assay [1] is given as “++”. For the same compound, in assay [1], the “Clonal growth, L: low density area of cell gradient, High” value is on record as “(+)”. In addition, the “Clonal growth, H: high density area of cell gradient, Low” value (“Clonal growth, H … Low” for short) in assay [1] is recorded as “++”. The “Clonal growth, L: low density area of cell gradient, Low” value in assay [1] was “++”. For the same compound, the “Clonal growth, H: high density area of cell gradient, Medium” value (“Clonal growth, H … Medium” for short) in assay [1] is “++”. The “Clonal growth, L: low density area of cell gradient, Medium” value (“Clonal growth, L … Medium” below) in assay [1] is on record as “++”. Also, in assay [1] (Exp 22), the “Inhibition of clonal growth of sparsely seeded cells” value is given as “smallest effect; also recorded: might have a small similar effect”. Also, the Clonal growth entry in assay [1] (setting [3]) is listed as “++”; in assay [1] (setting [4]), “++”; in assay [1] (setting [5]), “++”; in assay [1] (setting [6]) it was “(+)”; in assay [1] (setting [7]) it was “++”; in assay [1] (Experiment 22, L: area with low cell density, Medium concentration), “++”. In addition, the Clonal growth entry in assay [1] (setting [8]) is “++”; in assay [1] (setting [9]) it was “++”; in assay [1] (setting [10]) it was “++”; in assay [1] (setting [11]), “(+)”; in assay [1] (setting [12]), “++”; in assay [1] (setting [13]), “++”. Besides, in assay [2] (setting [15]), the Clonal growth result is given as “−”. Also, in assay [2] (setting [14]), the Significance result is “no”.

Take `CN1C(C(=O)Nc2ccccn2)=C(O)c2ccccc2S1(=O)=O` [Piroxicam]: in assay [1], the “Clonal growth, L low density area of cell gradient, High” value is recorded as “+”; the “Clonal growth, L low density area of cell gradient, Low” value is recorded as “++”; the “Effect on cell cloning in soft agar” value is given as “Clonal inhibition possible”. In assay [2] (setting [16]), the “Effect on clonal growth at 50 μM” value was “inhibited doubtfully; also recorded: possibly inhibited significantly” and the “Effect on clonal growth at 5-50 μM” value is “did not inhibit clonal growth significantly”. Besides, the “Anti-clonal effect, summary of Exp 15” value in assay [2] is recorded as “Piroxicam inhibited less, but similarly”.

As to `CC(=O)Oc1ccccc1C(=O)O` [Acetylsalicylic acid], the “Clonal growth, L low density area of cell gradient, High” value in assay [1] was “((+))”. The “Clonal growth, L low density area of cell gradient, Low” value in assay [1] is reported as “(+)”. In assay [1], the “Effect on cell cloning in soft agar” value is “Possible inhibition of clonal growth”. Besides, in assay [2] (setting [16]), the “Effect on clonal growth at 100 μM” value is reported as “possibly inhibited significantly, but not completely”. Besides, in assay [2] (Exp 15, 32000 S100T1 cells/well, 30 μl DMSO in the well might be toxic), the “Effect on clonal growth at 1000 μM” value is “the inhibition is complete”. In addition, the Significance of results in assay [2] (Exp 16, read after 14 days, Acetylsalicylic acid No 10, ca. 223 μM) is reported as “probable”. For the same compound, the “Colony inhibiting activity for dosage within a range that might be therapeutic” value in assay [2] (Exp 16, about 40000 S100T1 cells/well) was “probably had a colony inhibiting activity”. For the same compound, the Significance result is given as “probable” in assay [2] (Exp 16 day 14, Acetylsalicylic acid No 10, 215 μM); “doubtful*” in assay [2] (Exp 16 day 14, Acetylsalicylic acid No 10, 464 μM, doubtful because the solvent DMSO might be inhibiting); “possible” in assay [2] (Exp 16 day 21, Acetylsalicylic acid No 10, 215 μM); “doubtful*” in assay [2] (Exp 16 day 21, Acetylsalicylic acid No 10, 464 μM, *see conclusion (DMSO)). Also, the Growth entry is “(+))” in assay [2] (Exp 16 day 14, Acetylsalicylic acid No 10, 215 μM in wells); “(+))” in assay [2] (Exp 16 day 14, Acetylsalicylic acid No 10, 464 μM in wells); “(+)” in assay [2] (Exp 16 day 21, Acetylsalicylic acid No 10, 215 μM in wells); “(+))” in assay [2] (Exp 16 day 21, Acetylsalicylic acid No 10, 464 μM in wells). In addition, the “Anti-clonal effect, summary of Exp 15” value in assay [2] is listed as “showed possible clonal inhibition at low”.

In the case of `O=C1N(c2ccccc2)N(c2ccccc2)C(=O)C1(O)Cc1ccccc1` [#9, 4-benzyl-1,2-diphenyl-4-hydroxy-3,5-pyrazolidinedione], the “Clonal growth, H: high density area of cell gradient, High” value in assay [1] was “++”. Further, the “Clonal growth, L: low density area of cell gradient, High” value in assay [1] is reported as “+”. Further, the “Clonal growth, H … Low” value in assay [1] is “++(+)”. In addition, the “Clonal growth, H … Medium” value in assay [1] is on record as “+++”. The “Clonal growth, L … Medium” value in assay [1] is listed as “+”. The “Compounds with significant inhibition of clonal growth of sparsely seeded cells” value in assay [1] (Exp 24, 180000 S100T1 cells/well) is “None”. Further, the Clonal growth entry in assay [1] (Experiment 24, H: area with high cell density, High concentration, 48 hours) is reported as “++”; in assay [1] (Experiment 24, H: area with high cell density, Low concentration, 48 hours), “++(+)”; in assay [1] (Experiment 24, H: area with high cell density, Medium concentration, 48 hours), “+++”; in assay [1] (Experiment 24, L: area with low cell density, High concentration, 48 hours) it was “+”; in assay [1] (Experiment 24, L: area with low cell density, Low concentration, 48 hours), “+(+)”; in assay [1] (Experiment 24, L: area with low cell density, Medium concentration, 48 hours), “+”. Also, the Clonal growth result in assay [1] (setting [8]) is given as “++”; in assay [1] (setting [9]) it was “++(+)”; in assay [1] (setting [10]) it was “+++”; in assay [1] (setting [11]), “+”; in assay [1] (setting [12]), “+(+)”; in assay [1] (setting [13]), “+”. Besides, the Clonal growth entry is given as “−” in assay [2] (setting [15]) and “+” in assay [2] (Low conc., μM in wells: No 1 (4-OH—OPB) 2, 2 (Colchicine) 0.01, 3 (Diphenylhydantoin) 10, 4 (Podophyllotoxin) 0.03, 5 (Piroxicam) 5, 6 (Diclofenak) 10, 7 (Ibuprofen) 100, 8 (Naproxen) 50, 9 (Acetylsalicylic acid) 100). Moreover, in assay [2] (setting [14]), the Significance entry is reported as “””.

On to `O=C1N(c2ccccc2)N(c2ccccc2)C(=O)C1(O)CC[S+]([O-])c1ccccc1` (centres unmarked) [#6, 1,2-diphenyl-4-hydroxy-4-[2-(phenylsulfinyl)ethyl]-3,5-pyrazolidinedione], for which, in assay [1], the “Clonal growth, H: high density area of cell gradient, High” value is reported as “++”. The “Clonal growth, L: low density area of cell gradient, High” value in assay [1] was “−”. In assay [1], the “Clonal growth, H … Low” value is reported as “++”. In addition, in assay [1], the “Clonal growth, L: low density area of cell gradient, Low” value is reported as “++”. Besides, the “Clonal growth, H … Medium” value in assay [1] is on record as “++”. Further, in assay [1], the “Clonal growth, L … Medium” value is on record as “((+))”. Also, the “Effect at low concentration” value in assay [1] (Exp 22) is given as “no effect was observed”. Also, in assay [1] (Exp 22), the “Inhibition of clonal growth of sparsely seeded cells” value was “best inhibitor of clonal growth of sparsely seeded cells”. The Clonal growth result in assay [1] (setting [3]) is “++”; in assay [1] (setting [4]) it was “++”; in assay [1] (setting [5]), “++”; in assay [1] (setting [6]) it was “−”; in assay [1] (setting [7]), “++”; in assay [1] (setting [8]), “++”. The Clonal growth entry is recorded as “++” in assay [1] (setting [9]); “++” in assay [1] (setting [10]); “−” in assay [1] (setting [11]); “++” in assay [1] (setting [12]); “++” in assay [2] (setting [15]). In addition, in assay [1] (sparsely seeded areas while densely seeded areas of the same culture showed significant growth), the “Clonal inhibition by 4-OH-OPB analogues, summary of Exp 22-25” value was “complete inhibition of growth in sparsely seeded areas”. The Significance result in assay [2] (Exp 15, 5th day, High conc., μM in wells: No 1 (4-OH—OPB) 20, 2 (Colchicine) 0.1, 3 (Diphenylhydantoin) 100, 4 (Podophyllotoxin) 0.3, 5 (Piroxicam) 50, 6 (Diclofenak) 100, ” = as line above) is listed as “””; in assay [2] (setting [14]), “probably*”.

The values above are taken from patent US20060121449A1, “Method for selection of compounds which inhibit clonal cell growth and use thereof” (priority 2002, published 2006).
